Test results as given in patent US20260227412A1, “USE OF IFN-I ACTIVITY AS A BIOMARKER FOR TLR INHIBITOR TREATMENT” (MERCK PATENT GMBH, priority 2022, published 2026).

Key:
[1] = system: patients hospitalized with COVID-19 pneumonia; experiment: Exploratory phase II clinical study of enpatoran in patients hospitalized with COVID-19 pneumonia (NCT04448756), time to recovery; type: in vivo, human
Protocol: An exploratory phase II clinical study in patients hospitalized with COVID-19 pneumonia was conducted to inter alia assess whether the TLR inhibitor enpatoran improves time to recovery (NCT04448756).
Statistical testing was considered exploratory, and results are presented with no adjustment of type I error for multiplicity. Time to recovery was defined as time from Day 1 to first occurrence of WHO 9-point ordinal scale of ≤3 and was estimated via Kaplan-Meier (KM) analysis, presented with two-sided 95% confidence intervals (CI). The effect of each dose level compared with placebo was evaluated using a stratified log-rank test.
Blood was collected directly in PAXgene RNA tubes from patients at baseline prior to treatment for measurement of gene expression. IFN-I activity was measured by DxTerity Diagnostics (Rancho Dominguez, California, USA), using the IFN-1 test, a commercially available chemical ligation-dependent probe amplification and gene expression test with relative quantitative analysis by capillary electrophoresis. Sample testing and analysis was performed as previously described (Kim et al., J Mol Diagn. 2015 March;17 (2): 118-27). The IFN-1 test measures the expression levels of four IFN response genes (HERC5, IFI27, IFIT1 and RSAD2), i.e. the Dx-4 IFN-I signature, relative to the expression levels of three housekeeping normalizer genes (ACTB, GAPDH and TFRC). Normalized expression values of each respective response gene were calculated per the following function: Normalized ExpressionGene i=Log2(HeightGene i)−Mean (Log2 (Normaliser Gene Height)). The IFN-I signature score was calculated by averaging the normalized expression values of the four response genes. The cut-off between high IFN-I signature and low IFN-I signature scores (−0.5), was set to the mean±2 SDs (95th percentile) of IFN-I signature scores from 281 healthy human donors. This cut-off falls within the trough of the observed bimodal distribution of IFN-I signature scores for cohorts of SLE patients.
149 patients received either placebo (n=49), or enpatoran 50 mg (n=54)0r 100 mg (n=46) BID. Mean IFN-I signature scores (50 mg BID-0.84; 100 mg BID-0.74; placebo-0.91) and the proportion of patients with high IFN-I signature scores at baseline (50 mg BID 35%; 100 mg BID 43%; placebo 35%) were reasonably consistent across treatment groups, as reflected by Table 2: […]

[2] = system: TLR7/8 activation in human PBMCs by patient-derived immune complexes; experiment: IFN-α production in healthy donor PBMCs stimulated with patient-derived immune complexes (AlphaLISA); type: cell-based; conditions: PBMCs pre-treated with 1 μM enpatoran for 30 minutes, immune complex 24 hours
Description: Blood sample collection: Blood samples were collected from subjects with lupus nephritis (LN), systemic lupus erythematosus (SLE), dermatomyositis (DM), polymyositis (PM), patients with inclusion body myositis (IBM) and healthy controls (HC). Blood plasma was isolated and frozen. Later, immunoglobulin G (IgG) was purified using protein A resin and the protein concentration determined.
Immune complex formation and peripheral blood mononuclear cell (PBMC) stimulation: To generate necrotic cell lysates, human embryonic kidney 293 cells were suspended at a concentration of 50 x10^6 cells/mL in phosphate buffered saline (PBS; Gibco, Grand Island, NY). The cells were frozen at −80° C. for 10 minutes followed by thawing at 37° C. Four freeze/thaw cycles were performed. The lysate was centrifuged at 400 g for 5 minutes to separate non-lysed cells and the supernatant was collected as necrotic cell lysate.
PBMCs were isolated from leukopacks collected from healthy donors (New York Blood Center, New York, NY) in sodium heparin tubes using Ficoll-Paque Plus (Cytiva Life Sciences, Uppsala, Sweeden). The cells were plated in 96-well U-bottom plates (4 x10^5 cells/well) in RPMI 1640 Medium (Gibco, Grand Island, NY) supplemented with 10% fetal bovine serum (FBS; Corning, Woodland, CA). […] The supernatants were collected and cytokine production was measured by AlphaLISA (PerkinElmer, Waltham, MA).

[3] = subgroup with high IFN-I signature scores at baseline, 50 mg BID
[4] = subgroup with high IFN-I signature scores at baseline, 100 mg BID

SMILES: N#Cc1ccc(N2C[C@H](N)C[C@H](C(F)(F)F)C2)c2cccnc12 [enpatoran, 5-[(3R,5S)-3-amino-5-(trifluoromethyl)piperidin-1-yl]quinoline-8-carbonitrile]
- KM-estimated cumulative recovery rate up to Day 14 [1, 3]: 78.6%
- recovery rate at Day 28 [1, 3]: 73.3%
- KM-estimated cumulative recovery rate up to Day 14 [1, 4]: 88.2%
- recovery rate at Day 28 [1, 4]: 88.2%
- recovery rate at Day 28 ([1]; subgroup with low IFN-I signature scores at baseline, 50 mg BID): 100%
- recovery rate at Day 28 ([1]; subgroup with low IFN-I signature scores at baseline, 100 mg BID): 91.3%
- primary efficacy endpoint of the time to recovery from Day 1 through Day 28 ([1]; unstratified patient populations, enpatoran 50 mg or 100 mg BID vs placebo): not met
- recovery rate ([1]; unstratified, Day 1 through Day 28, 50 mg BID): 88.9%
- recovery rate ([1]; unstratified, Day 1 through Day 28, 100 mg BID): 91.3%
- median time to recovery ([1]; unstratified, range across groups (placebo, 50 mg BID, 100 mg BID)): 3.4 to 3.9 days
- IFN-α production [2]: completely inhibited
